From patent US20200207759A1, “NEW PROPANAMINE DERIVATIVES FOR TREATING PAIN AND PAIN RELATED CONDITIONS” (ESTEVE PHARMACEUTICALS, S.A., priority 2017, published 2020) come the findings set out here.

For assay [1], the target named is Human α2δ-1 subunit of Cav2.2 calcium channel (Homo sapiens, UniProt P54289). In words: Binding assay to human α2δ-1 subunit of Cav2.2 calcium channel, [3H]-Gabapentin. To be noted: human α2δ-1 enriched membranes, 15 nM [3H]-Gabapentin; read-out: Ki (nM) alpha2delta Hum. The essentials:
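Human α2δ-1-enriched membranes incubated with 15 nM [3H]-gabapentin in 10 mM Hepes-KOH pH 7.4, 60 min at 27 °C; nonspecific binding defined with 10 μM pregabalin. Bound ligand separated by filtration on PEI-presoaked GF/C filters, washed with ice-cold 50 mM Tris-HCl pH 7.4, counted by scintillation.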

Assay [2] has as its target Human norepinephrine transporter (NET) (Homo sapiens, UniProt P23975). In words: Binding assay to human norepinephrine transporter (NET), [3H]-Nisoxetin. To be noted: human NET enriched membranes, 5 nM [3H]-Nisoxetin; read-out: Ki (nM) NET Hum. The method in brief:
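NET-enriched membranes (5 μg) incubated with 5 nM [3H]-nisoxetin in 50 mM Tris-HCl, 120 mM NaCl, 5 mM KCl, pH 7.4, for 60 min at 4 °C. Separation by filtration on PEI-soaked GF/C, then scintillation counting.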

Chain of Human α2δ-1 subunit of Cav2.2 calcium channel (P54289 25-1103): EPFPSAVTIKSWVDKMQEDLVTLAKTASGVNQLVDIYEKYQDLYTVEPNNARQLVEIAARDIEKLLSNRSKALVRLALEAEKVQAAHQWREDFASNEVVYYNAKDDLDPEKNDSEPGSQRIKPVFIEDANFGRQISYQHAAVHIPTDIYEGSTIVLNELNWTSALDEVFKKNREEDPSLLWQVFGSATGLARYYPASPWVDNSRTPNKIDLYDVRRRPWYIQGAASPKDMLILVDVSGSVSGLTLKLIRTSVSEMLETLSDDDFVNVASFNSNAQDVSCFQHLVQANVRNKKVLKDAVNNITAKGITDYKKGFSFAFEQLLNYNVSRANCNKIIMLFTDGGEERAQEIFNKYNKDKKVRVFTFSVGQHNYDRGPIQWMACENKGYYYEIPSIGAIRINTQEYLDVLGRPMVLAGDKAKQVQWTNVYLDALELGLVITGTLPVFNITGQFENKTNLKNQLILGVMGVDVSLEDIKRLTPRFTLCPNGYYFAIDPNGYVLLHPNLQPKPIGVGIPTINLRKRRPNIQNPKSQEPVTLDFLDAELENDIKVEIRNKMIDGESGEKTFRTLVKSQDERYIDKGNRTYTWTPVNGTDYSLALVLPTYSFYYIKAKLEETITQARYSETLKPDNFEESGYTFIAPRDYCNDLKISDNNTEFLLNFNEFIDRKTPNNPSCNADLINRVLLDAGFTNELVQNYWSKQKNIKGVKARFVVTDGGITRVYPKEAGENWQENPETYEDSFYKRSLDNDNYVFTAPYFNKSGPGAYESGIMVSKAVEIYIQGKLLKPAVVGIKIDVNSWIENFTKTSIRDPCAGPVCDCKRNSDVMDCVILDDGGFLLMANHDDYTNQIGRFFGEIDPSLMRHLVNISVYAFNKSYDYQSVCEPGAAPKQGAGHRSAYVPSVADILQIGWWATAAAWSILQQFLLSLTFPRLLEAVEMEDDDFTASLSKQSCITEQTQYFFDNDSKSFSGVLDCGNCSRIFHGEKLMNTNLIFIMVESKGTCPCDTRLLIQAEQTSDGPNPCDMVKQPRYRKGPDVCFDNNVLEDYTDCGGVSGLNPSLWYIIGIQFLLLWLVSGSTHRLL
Chain of Human norepinephrine transporter (NET) (P23975 whole entry): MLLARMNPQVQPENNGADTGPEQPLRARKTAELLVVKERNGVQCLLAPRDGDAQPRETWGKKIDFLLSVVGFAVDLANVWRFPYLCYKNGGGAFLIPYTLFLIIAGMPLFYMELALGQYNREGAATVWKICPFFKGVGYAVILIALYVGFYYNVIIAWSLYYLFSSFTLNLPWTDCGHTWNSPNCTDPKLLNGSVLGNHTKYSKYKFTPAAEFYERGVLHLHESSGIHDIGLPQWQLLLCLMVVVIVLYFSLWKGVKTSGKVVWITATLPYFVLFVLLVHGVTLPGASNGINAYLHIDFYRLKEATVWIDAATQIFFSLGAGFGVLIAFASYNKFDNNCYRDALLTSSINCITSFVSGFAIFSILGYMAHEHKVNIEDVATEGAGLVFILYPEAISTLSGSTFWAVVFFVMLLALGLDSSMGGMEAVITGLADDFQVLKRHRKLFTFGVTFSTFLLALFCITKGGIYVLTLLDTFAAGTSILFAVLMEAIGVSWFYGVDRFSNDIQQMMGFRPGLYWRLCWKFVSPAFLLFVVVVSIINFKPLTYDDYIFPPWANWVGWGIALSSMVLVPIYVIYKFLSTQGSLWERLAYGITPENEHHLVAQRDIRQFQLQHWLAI

For the compound `CNCC[C@H](c1cccs1)N1CC(C)(C)c2nc(OC)ccc21` [Example 114, (R)-3-(5-methoxy-3,3-dimethyl-2,3-dihydro-1H-pyrrolo[3,2-b]pyridin-1-yl)-N-methyl-3-(thiophen-2-yl)propan-1-amine], the Ki in assay [1] is 100 to 500 nM; in assay [2], > 1000 nM.
As to `CNCC[C@@H](c1cccs1)N1c2ccccc2C[C@H]1C` [Example 117, (S)—N-methyl-3-((R)-2-methylindolin-1-yl)-3-(thiophen-2-yl)propan-1-amine], the Ki in assay [1] is ≥ 3000 nM; in assay [2] it was < 100 nM.
Regarding `CNCC[C@H](c1cccs1)N1c2ccccc2C[C@@H]1C` [Example 118, (R)—N-methyl-3-((S)-2-methylindolin-1-yl)-3-(thiophen-2-yl)propan-1-amine], the Ki in assay [1] is ≥ 3000 nM; in assay [2], > 1000 nM.
